{"source": "ChEMBL document CHEMBL4304811", "about": "“Development of a Water-Soluble Indolylmaleimide Derivative IM-93 Showing Dual Inhibition of Ferroptosis and NETosis” (ACS Med Chem Lett, 2019)", "key": {"[1]": {"tested_on": "Tyrosine-protein kinase ABL1 (Homo sapiens), P00519 [Y253F]", "test": "Binding affinity to human phosphorylated ABL1 Y253F mutant (S229 to K512 residues) expressed in mammalian expression system assessed as residual binding level at 10 uM by Kinomescan method relative to control"}, "[2]": {"biological_target": "Activin receptor type-1-like (Homo sapiens) (UniProt P37023)", "sequence (P37023 whole entry, the tested form may be a part)": "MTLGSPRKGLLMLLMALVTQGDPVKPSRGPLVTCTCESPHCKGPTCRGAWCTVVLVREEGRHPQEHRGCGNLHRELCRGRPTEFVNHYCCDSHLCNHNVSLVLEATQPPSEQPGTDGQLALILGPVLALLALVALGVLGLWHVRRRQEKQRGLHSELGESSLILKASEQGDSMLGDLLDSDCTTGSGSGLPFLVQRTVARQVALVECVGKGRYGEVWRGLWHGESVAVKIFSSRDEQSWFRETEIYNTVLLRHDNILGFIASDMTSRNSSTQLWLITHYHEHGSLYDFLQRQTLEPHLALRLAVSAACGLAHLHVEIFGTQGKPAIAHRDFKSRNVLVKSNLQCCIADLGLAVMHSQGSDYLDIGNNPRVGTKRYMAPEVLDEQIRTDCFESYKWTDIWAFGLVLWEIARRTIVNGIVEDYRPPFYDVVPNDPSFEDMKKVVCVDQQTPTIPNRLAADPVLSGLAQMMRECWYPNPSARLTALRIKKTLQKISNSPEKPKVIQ", "test": "Binding affinity to wild-type human ACVRL1 (L164 to Q503 residues) expressed in bacterial expression system assessed as residual binding level at 10 uM by Kinomescan method relative to control"}, "[3]": {"biological_target": "Protein-tyrosine kinase 6 (Homo sapiens) (UniProt Q13882)", "test": "Binding affinity to wild-type human partial length BRK (L166 to T451 residues) expressed in bacterial expression system assessed as residual binding level at 10 uM by Kinomescan method relative to control"}, "[4]": {"biological_target": "Calcium/calmodulin-dependent protein kinase type IV (Homo sapiens) (UniProt Q16566)", "test": "Binding affinity to wild-type human partial length CAMK4 (A22 to A322 residues) expressed in bacterial expression system assessed as residual binding level at 10 uM by Kinomescan method relative to control"}, "[5]": {"biological_target": "Calcium/calmodulin-dependent protein kinase kinase 1 (Homo sapiens) (UniProt Q8N5S9)", "test": "Binding affinity to wild-type human partial length CAMKK1 (R65 to E414 residues) expressed in bacterial expression system assessed as residual binding level at 10 uM by Kinomescan method relative to control"}, "[6]": {"biological_target": "Cyclin-dependent kinase 11A (Homo sapiens) (UniProt Q9UQ88)", "test": "Binding affinity to wild-type human partial length CDC2L2 (D391 to K730 residues) expressed in bacterial expression system assessed as residual binding level at 10 uM by Kinomescan method relative to control"}, "[7]": {"biological_target": "Cyclin-dependent kinase-like 5 (Homo sapiens) (UniProt O76039)", "sequence (O76039 whole entry, the tested form may be a part)": "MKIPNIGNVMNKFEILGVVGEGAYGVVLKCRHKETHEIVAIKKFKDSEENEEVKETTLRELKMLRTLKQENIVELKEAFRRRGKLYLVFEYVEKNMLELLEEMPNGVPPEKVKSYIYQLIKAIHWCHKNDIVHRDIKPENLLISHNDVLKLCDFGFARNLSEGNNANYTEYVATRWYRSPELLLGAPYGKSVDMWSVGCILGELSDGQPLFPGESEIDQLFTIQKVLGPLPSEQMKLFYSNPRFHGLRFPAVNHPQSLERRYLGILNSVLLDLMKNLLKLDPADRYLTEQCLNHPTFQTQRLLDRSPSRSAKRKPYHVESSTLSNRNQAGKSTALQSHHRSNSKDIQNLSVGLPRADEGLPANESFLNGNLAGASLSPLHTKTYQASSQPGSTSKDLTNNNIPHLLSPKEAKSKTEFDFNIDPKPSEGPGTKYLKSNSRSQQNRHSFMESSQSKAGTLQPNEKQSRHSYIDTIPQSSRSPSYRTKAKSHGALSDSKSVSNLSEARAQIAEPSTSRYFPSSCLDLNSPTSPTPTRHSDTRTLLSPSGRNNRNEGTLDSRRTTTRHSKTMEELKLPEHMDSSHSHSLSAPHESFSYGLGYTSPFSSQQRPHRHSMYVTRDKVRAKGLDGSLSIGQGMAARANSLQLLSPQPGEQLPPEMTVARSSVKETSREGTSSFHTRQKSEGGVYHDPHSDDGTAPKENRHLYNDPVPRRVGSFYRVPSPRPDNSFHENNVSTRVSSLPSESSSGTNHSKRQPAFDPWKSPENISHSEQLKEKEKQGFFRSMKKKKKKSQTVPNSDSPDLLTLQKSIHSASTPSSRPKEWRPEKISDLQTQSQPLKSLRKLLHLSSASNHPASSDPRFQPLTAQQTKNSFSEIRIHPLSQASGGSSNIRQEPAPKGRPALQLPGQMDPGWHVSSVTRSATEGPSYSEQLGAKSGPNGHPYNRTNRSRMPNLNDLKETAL", "test": "Binding affinity to wild-type human partial length CDKL5 (M1 to S337 residues) expressed in mammalian expression system assessed as residual binding level at 10 uM by Kinomescan method relative to control"}, "[8]": {"biological_target": "Megakaryocyte-associated tyrosine-protein kinase (Homo sapiens) (UniProt P42679)", "test": "Binding affinity to wild-type human full length CTK (M43 to P508 residues) expressed in mammalian expression system assessed as residual binding level at 10 uM by Kinomescan method relative to control"}, "[9]": {"biological_target": "Serine/threonine-protein kinase DCLK3 (Homo sapiens) (UniProt Q9C098)", "test": "Binding affinity to wild-type human partial length DCAMKL3 (E140 to V628 residues) expressed in bacterial expression system assessed as residual binding level at 10 uM by Kinomescan method relative to control"}, "[10]": {"biological_target": "Serine/threonine-protein kinase MRCK gamma (Homo sapiens) (UniProt Q6DT37)", "test": "Binding affinity to wild-type human partial length DMPK2 (S46 to S408 residues) expressed in bacterial expression system assessed as residual binding level at 10 uM by Kinomescan method relative to control"}, "[11]": {"biological_target": "Fibroblast growth factor receptor 1 (Homo sapiens) (UniProt P11362)", "sequence (P11362 22-822 limits assumed)": "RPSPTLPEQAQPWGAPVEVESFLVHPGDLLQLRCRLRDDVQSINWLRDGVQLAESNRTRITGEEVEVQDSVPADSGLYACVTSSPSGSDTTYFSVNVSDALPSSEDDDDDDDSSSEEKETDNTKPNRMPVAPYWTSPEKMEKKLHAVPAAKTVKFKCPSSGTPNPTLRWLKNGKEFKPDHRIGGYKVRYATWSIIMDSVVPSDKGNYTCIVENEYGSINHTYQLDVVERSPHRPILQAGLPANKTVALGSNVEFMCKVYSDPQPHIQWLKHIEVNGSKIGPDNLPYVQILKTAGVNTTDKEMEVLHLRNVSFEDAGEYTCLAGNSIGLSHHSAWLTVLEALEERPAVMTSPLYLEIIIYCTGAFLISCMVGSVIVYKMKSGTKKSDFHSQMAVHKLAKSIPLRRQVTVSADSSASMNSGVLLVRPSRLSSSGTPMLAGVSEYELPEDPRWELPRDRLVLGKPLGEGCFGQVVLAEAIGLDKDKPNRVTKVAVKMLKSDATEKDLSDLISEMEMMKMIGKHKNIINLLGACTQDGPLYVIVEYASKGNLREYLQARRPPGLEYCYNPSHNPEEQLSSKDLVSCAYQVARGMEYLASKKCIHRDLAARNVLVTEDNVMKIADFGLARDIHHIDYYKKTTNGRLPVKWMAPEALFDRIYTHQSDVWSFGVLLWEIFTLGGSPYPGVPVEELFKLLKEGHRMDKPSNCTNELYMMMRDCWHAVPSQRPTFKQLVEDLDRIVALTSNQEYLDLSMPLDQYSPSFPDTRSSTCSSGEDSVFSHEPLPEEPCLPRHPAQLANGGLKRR", "test": "Binding affinity to wild-type human partial length FGFR1 (P357 to V669 residues) expressed in bacterial expression system assessed as residual binding level at 10 uM by Kinomescan method relative to control"}, "[12]": {"tested_on": "Mast/stem cell growth factor receptor Kit (Homo sapiens), P10721 [A829P]", "sequence (P10721 whole entry A829P, the tested form may be a part)": "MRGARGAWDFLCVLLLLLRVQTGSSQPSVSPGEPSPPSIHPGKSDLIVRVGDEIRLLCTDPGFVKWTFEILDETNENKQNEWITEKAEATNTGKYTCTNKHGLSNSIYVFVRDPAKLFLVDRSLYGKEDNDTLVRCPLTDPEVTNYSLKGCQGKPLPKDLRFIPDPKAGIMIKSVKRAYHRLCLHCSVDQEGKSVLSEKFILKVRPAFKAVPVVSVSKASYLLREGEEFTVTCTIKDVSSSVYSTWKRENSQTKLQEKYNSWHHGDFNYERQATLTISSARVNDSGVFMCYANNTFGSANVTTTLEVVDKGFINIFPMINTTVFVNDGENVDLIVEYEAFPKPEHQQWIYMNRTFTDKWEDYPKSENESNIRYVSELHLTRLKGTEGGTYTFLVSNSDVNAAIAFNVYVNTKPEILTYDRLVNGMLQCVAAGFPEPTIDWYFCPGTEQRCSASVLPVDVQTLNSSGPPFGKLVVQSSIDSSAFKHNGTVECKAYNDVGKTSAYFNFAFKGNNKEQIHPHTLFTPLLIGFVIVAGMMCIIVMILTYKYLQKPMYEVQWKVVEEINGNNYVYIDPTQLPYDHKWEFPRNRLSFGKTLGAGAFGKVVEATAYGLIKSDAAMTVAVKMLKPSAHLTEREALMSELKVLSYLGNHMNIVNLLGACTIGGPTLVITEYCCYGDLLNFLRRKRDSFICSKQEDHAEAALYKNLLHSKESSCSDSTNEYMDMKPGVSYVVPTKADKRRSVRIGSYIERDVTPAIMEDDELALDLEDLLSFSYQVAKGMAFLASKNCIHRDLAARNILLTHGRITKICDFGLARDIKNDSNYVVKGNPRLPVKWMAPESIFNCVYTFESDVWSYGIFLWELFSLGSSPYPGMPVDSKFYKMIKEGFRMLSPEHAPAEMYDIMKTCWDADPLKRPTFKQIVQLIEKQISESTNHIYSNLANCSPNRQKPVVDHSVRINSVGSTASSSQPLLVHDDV", "test": "Binding affinity to human partial length KIT A829P mutant (I571 to D952 residues) expressed in mammalian expression system assessed as residual binding level at 10 uM by Kinomescan method relative to control"}, "[13]": {"biological_target": "Serine/threonine-protein kinase LATS1 (Homo sapiens) (UniProt O95835)", "test": "Binding affinity to wild-type human partial length LATS1 (Q678 to V1130 residues) expressed in bacterial expression system assessed as residual binding level at 10 uM by Kinomescan method relative to control"}, "[14]": {"biological_target": "Serine/threonine-protein kinase LATS2 (Homo sapiens) (UniProt Q9NRM7)", "test": "Binding affinity to wild-type human partial length LATS2 (Q641 to V1088 residues) expressed in mammalian expression system assessed as residual binding level at 10 uM by Kinomescan method relative to control"}, "[15]": {"tested_on": "Leucine-rich repeat serine/threonine-protein kinase 2 (Homo sapiens), Q5S007 [G2019S]", "test": "Binding affinity to human partial length LRRK2 G2019S mutant (H970 to E2527 residues) expressed in mammalian expression system assessed as residual binding level at 10 uM by Kinomescan method relative to control"}, "[16]": {"biological_target": "Serine/threonine-protein kinase mTOR (Homo sapiens) (UniProt P42345)", "test": "Binding affinity to wild-type human partial length MTOR (L1382 to W2549 residues) expressed in mammalian expression system assessed as residual binding level at 10 uM by Kinomescan method relative to control"}, "[17]": {"biological_target": "Serine/threonine-protein kinase PAK 6 (Homo sapiens) (UniProt Q9NQU5)", "test": "Binding affinity to wild-type human partial length PAK6 (N298 to C681 residues) expressed in bacterial expression system assessed as residual binding level at 10 uM by Kinomescan method relative to control"}, "[18]": {"biological_target": "Cyclin-dependent kinase 18 (Homo sapiens) (UniProt Q07002)", "test": "Binding affinity to wild-type human full length PCTK3 (M3 to F474 residues) expressed in bacterial expression system assessed as residual binding level at 10 uM by Kinomescan method relative to control"}, "[19]": {"tested_on": "Phosphatidylinositol 4,5-bisphosphate 3-kinase catalytic subunit alpha isoform (Homo sapiens), P42336 [H1047Y]", "sequence (P42336 whole entry H1047Y, the tested form may be a part, canonical isoform)": "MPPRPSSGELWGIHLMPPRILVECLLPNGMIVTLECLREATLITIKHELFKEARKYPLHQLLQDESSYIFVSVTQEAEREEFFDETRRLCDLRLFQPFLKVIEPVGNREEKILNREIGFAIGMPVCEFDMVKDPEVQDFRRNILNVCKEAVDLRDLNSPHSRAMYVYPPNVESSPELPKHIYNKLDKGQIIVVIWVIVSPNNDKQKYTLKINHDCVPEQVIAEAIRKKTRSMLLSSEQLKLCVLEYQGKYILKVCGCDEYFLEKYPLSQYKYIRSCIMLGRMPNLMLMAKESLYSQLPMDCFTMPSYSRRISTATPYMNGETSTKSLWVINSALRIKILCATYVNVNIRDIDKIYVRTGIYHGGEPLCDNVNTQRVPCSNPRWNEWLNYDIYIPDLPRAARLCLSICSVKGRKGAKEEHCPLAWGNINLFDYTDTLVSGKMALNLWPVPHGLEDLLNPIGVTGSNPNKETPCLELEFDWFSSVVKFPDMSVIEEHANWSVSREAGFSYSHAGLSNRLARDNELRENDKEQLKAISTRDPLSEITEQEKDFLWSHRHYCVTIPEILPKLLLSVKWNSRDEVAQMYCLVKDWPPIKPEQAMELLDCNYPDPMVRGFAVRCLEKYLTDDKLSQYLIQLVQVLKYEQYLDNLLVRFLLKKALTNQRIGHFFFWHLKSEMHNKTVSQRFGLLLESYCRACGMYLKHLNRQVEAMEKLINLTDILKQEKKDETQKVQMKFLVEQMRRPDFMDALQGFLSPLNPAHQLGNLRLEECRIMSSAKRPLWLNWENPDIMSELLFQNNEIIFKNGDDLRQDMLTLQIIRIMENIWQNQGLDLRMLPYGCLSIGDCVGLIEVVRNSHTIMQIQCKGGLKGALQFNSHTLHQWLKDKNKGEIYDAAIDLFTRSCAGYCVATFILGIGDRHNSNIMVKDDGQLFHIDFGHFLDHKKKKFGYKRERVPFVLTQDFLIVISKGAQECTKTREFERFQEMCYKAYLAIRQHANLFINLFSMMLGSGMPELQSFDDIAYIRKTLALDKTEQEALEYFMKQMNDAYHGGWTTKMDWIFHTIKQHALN", "test": "Binding affinity to human partial length PIK3CA H1047Y mutant (R108 to N1068 residues) expressed in mammalian expression system assessed as residual binding level at 10 uM by Kinomescan method relative to control"}, "[20]": {"biological_target": "Serine/threonine-protein kinase N2 (Homo sapiens) (UniProt Q16513)", "test": "Binding affinity to wild-type human partial length PKN2 (E634 to C984 residues) expressed in bacterial expression system assessed as residual binding level at 10 uM by Kinomescan method relative to control"}, "[21]": {"biological_target": "Serine/threonine-protein kinase Sgk3 (Homo sapiens) (UniProt Q96BR1)", "sequence (Q96BR1 whole entry, the tested form may be a part)": "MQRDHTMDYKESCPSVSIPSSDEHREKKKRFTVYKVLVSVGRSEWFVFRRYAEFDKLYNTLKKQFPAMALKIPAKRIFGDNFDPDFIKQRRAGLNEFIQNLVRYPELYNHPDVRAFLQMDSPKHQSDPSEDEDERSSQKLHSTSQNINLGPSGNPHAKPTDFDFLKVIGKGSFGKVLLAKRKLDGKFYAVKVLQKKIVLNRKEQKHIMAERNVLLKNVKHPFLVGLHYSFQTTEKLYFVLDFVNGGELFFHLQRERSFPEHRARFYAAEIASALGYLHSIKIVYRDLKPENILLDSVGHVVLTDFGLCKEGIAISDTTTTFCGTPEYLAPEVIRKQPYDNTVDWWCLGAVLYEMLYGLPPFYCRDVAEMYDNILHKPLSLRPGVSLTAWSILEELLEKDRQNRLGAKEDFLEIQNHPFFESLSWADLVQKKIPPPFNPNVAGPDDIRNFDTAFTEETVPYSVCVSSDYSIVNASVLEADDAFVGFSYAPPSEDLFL", "test": "Binding affinity to wild-type human partial length SGK3 (M119 to L496 residues) expressed in mammalian expression system assessed as residual binding level at 10 uM by Kinomescan method relative to control"}, "[22]": {"biological_target": "Tyrosine-protein kinase receptor Tie-1 (Homo sapiens) (UniProt P35590)", "test": "Binding affinity to wild-type human partial length TIE1 (T819 to A1138 residues) expressed in bacterial expression system assessed as residual binding level at 10 uM by Kinomescan method relative to control"}, "[23]": {"biological_target": "Angiopoietin-1 receptor (Homo sapiens) (UniProt Q02763)", "test": "Binding affinity to wild-type human partial length TIE2 (N804 to T1112 residues) expressed in bacterial expression system assessed as residual binding level at 10 uM by Kinomescan method relative to control"}, "THP-1": {"tested_on": "THP-1", "test": "Inhibition of Staphylococcus aureus-induced pyroptosis in human THP1 cells at 10 uM preincubated for 1 hr followed by bacterial infection and measured after 2 hrs by INT dye based LDH assay", "type": "functional, cell-based"}}, "note": "The source made the active and inactive calls. No cut-off for these calls is given here."}
{"smiles": "CC(C)N1C(=O)C(NCCCN(C)C)=C(c2cn(C)c3ccccc23)C1=O.Cl", "values": [{"measurement": "Activity", "setting": "[1]", "value": 98, "unit": "%"}, {"measurement": "Activity", "setting": "[2]", "value": 100, "unit": "%"}, {"measurement": "Activity", "setting": "[3]", "value": 100, "unit": "%"}, {"measurement": "Activity", "setting": "[4]", "value": 80, "unit": "%"}, {"measurement": "Activity", "setting": "[5]", "value": 93, "unit": "%"}, {"measurement": "Activity", "setting": "[6]", "value": 96, "unit": "%"}, {"measurement": "Activity", "setting": "[7]", "value": 96, "unit": "%"}, {"measurement": "Activity", "setting": "[8]", "value": 83, "unit": "%"}, {"measurement": "Activity", "setting": "[9]", "value": 100, "unit": "%"}, {"measurement": "Activity", "setting": "[10]", "value": 93, "unit": "%"}, {"measurement": "Activity", "setting": "[11]", "value": 84, "unit": "%"}, {"measurement": "Activity", "setting": "[12]", "value": 100, "unit": "%"}, {"measurement": "Activity", "setting": "[13]", "value": 96, "unit": "%"}, {"measurement": "Activity", "setting": "[14]", "value": 88, "unit": "%"}, {"measurement": "Activity", "setting": "[15]", "value": 91, "unit": "%"}, {"measurement": "Activity", "setting": "[16]", "value": 87, "unit": "%"}, {"measurement": "Activity", "setting": "[17]", "value": 100, "unit": "%"}, {"measurement": "Activity", "setting": "[18]", "value": 99, "unit": "%"}, {"measurement": "Activity", "setting": "[19]", "value": 94, "unit": "%"}, {"measurement": "Activity", "setting": "[20]", "value": 95, "unit": "%"}, {"measurement": "Activity", "setting": "[21]", "value": 89, "unit": "%"}, {"measurement": "Activity", "setting": "[22]", "value": 92, "unit": "%"}, {"measurement": "Activity", "setting": "[23]", "value": 93, "unit": "%"}, {"measurement": "inhibition", "setting": "THP-1", "value": "inactive"}]}
